{"source": "patent US20230285577A1", "about": "“POLYSACCHARIDE DERIVATIVE, POLYSACCHARIDE DERIVATIVE-DRUG CONJUGATE, AND METHOD FOR PRODUCING SAME” (priority 2020, published 2023)", "key": {"[1]": {"test": "Release test of PMX from HA-ABA-PMX (dialysis tube, PBS)", "type": "physicochemical", "procedure": "The release behavior or PMX from HA-ABA-PMX at different pH values was investigated using a dialysis tube (MWCO: 1 kDa). […] The external solution (sustained release solution) was collected at specific time points, and new PBS was substituted for the entire amount. The drug concentration in the collected external solution (sustained release solution) was measured by UV-vis, and the release rate of the drug PMX was calculated."}, "[2]": {"test_system": "AB22 cells (mouse mesothelioma cells)", "test": "Cell toxicity evaluation (WST assay) of HA-ABA-PMX in AB22", "type": "cell-based", "conditions": "48 hours; for Cell growth inhibition effect (cell viability): PMX 10^−4 to 10 μg/mL", "procedure": "(§1) As with the HA-ABA, the cell toxicity of HA-ABA-PMX in MeT-5A (human mesothelial cell line) and AB22 cells (mouse mesothelioma cells) was evaluated by WST assay.\n(§2) Specifically, MeT-5A (human mesothelial cell line) and AB22 cells (mouse mesothelioma cells) were seeded on 24-well plates and incubated for 24 hours. The medium was then replaced with medium having HA-ABA-PMX dissolved at different PMX concentrations (10^−4 μg/mL, 10^−3 μg/mL, 10^−2 μg/mL, 10^−1 μg/mL, 1 μh/mL, 10 μg/mL). Cell viability (%) 48 hours after sample addition was then measured by WST-8 assay (Cell Counting Kit-8, Dojindo)."}, "[3]": {"test_system": "MeT-5A (human mesothelial cell line)", "test": "Cell toxicity evaluation (WST assay) of HA-ABA-PMX in MeT-5A", "type": "cell-based", "conditions": "48 hours; for Cell growth inhibition effect (cell viability): PMX 10^−4 to 10 μg/mL", "procedure": "as §1, §2"}, "[4]": {"test": "Release test of Van from AL-ABA-Van solution (dialysis membrane, PBS)", "type": "physicochemical", "procedure": "The release behavior or Van from an AL-ABA-Van solution at different pH values was investigated using a dialysis membrane (pore size: 50 kDa). Specifically, 1 mL of an AL-ABA-Van solution of the AL-ABA-Van obtained in Example I-7 above dissolved in […] of pure water was injected into a dialysis membrane cut to 9 cm, and both ends of the dialysis membrane were tied with kite thread. This was placed in an 80 mL security, container, 79 mL of PBS solution was added, and the mixture was stirred at the maximum rotational speed with a 1 cm stirrer tip in a 37° C. thermostatic tank. 1.0 mL samples were taken from the solution in the security container at specific time points (1, 2, 3, 4, 6, 8, 12, 24, and 48 hours). The sample solutions were subjected to UV-vis spectrum measurement, the drug concentration in the solutions was assayed based on absorbance, and the release rate of the drug Van (vancomycin release %) was calculated. The above measurements were conducted with pH 5.0, pH 6.0 and pH 7.4 PBS solutions (n=4 at each pH).\nFor purposes of comparison as control tests, the same release testing was also performed with the AL-ABA-Van solution replaced by a mixed solution (AL+Van) of sodium alginate and vancomycin obtained by dissolving 3 mg/mL of sodium alginate (AL) (IL-6G, viscosity 50 to 80 mPa·s (1%), manufactured by Kimica Co., Ltd.) and 8.6 mg/mL of vancomycin (Van) in pure water, and by a solution (Van only) obtained by dissolving 8.6 mg/mL of vancomycin (Van) in pure water."}, "[5]": {"test_system": "AB22 cells (mouse mesothelioma cells)", "test": "Cell toxicity evaluation (WST assay) of HA-ABA-DOX in AB22", "type": "cell-based", "conditions": "48 hours; for Cell growth inhibition effect (cell viability): DOX 10^−3 to 100 μg/mL", "procedure": "As with the HA-ABA, the cell toxicity of HA-ABA-DOX in AB22 cells (mouse mesothelioma cells) was evaluated by WST assay.\nSpecifically, AB22 cells (mouse mesothelioma cells) were seeded on 24-well plates and incubated for 24 hours. The medium was then replaced with media having […] dissolved at different DOX concentrations (10^−3 μg/mL, 10^−2 μg/mL, 10^−1 μg/mL, 1 μg/mL, 10 μg/mL, 100 μg/mL). Cell viability (%) 48 hours after sample addition was then measured by WST-8 assay (Cell Counting Kit-8 Dojindo).\nFor purposes of comparison as a control test, cell toxicity was also evaluated using free DOX in place of HA-ABA-DOX."}, "[6]": {"test": "Release test of DOX from HA-ABA-DOX (dialysis tube, PBS)", "type": "physicochemical", "conditions": "PBS 37° C., pH 5.0, 6.0, 7.4", "procedure": "Release of DOX from HA-ABA-DOX under different pH conditions was investigated in the same manner as in Example II-2. Specifically, 1 mL of an aqueous solution of the HA-ABA-DOX (1 mg/mL) obtained in Example II-3 above was placed in a dialysis tube (MWCO: 1 kDa), and shaken at 50 rpm while being incubated with 79 mL of PBS (37° C., pH=5.0, 6.0 7.4). The external solution (sustained release solution) was collected at specific time points, and new PBS was substituted for the entire amount. The drug concentration in the collected external solution (sustained release solution) was measured by UV-vis, and the release rate of the drug DOX was calculated."}}}
{"molecule": "Nc1nc2[nH]cc(CCc3ccc(C(=O)N[C@@H](CCC(=O)O)C(=O)O)cc3)c2c(=O)[nH]1", "note": "[Free PMX, Pemetrexed, reference compound]", "values": [{"measurement": "PMX released", "setting": "[1]; control solutions, within 2 hours", "value": "almost all"}, {"measurement": "Cell growth inhibition effect (cell viability)", "setting": "[2]", "value": "dose-dependent cell growth inhibition effects"}, {"measurement": "Cell growth inhibition effect (cell viability)", "setting": "[3]", "value": "dose-dependent cell growth inhibition effects"}]}
{"molecule": "CN[C@H](CC(C)C)C(=O)N[C@H]1C(=O)N[C@@H](CC(N)=O)C(=O)N[C@H]2C(=O)N[C@H]3C(=O)N[C@H](C(=O)N[C@H](C(=O)O)c4cc(O)cc(O)c4-c4cc3ccc4O)[C@H](O)c3ccc(c(Cl)c3)Oc3cc2cc(c3O[C@@H]2O[C@H](CO)[C@@H](O)[C@H](O)[C@H]2O[C@H]2C[C@](C)(N)[C@H](O)[C@H](C)O2)Oc2ccc(cc2Cl)[C@H]1O", "note": "[Van, Vancomycin, reference compound]", "values": [{"measurement": "Van released", "setting": "[4]; control solutions, first 10 hours, pH 5.0, 6.0, 7.4", "value": "almost all"}, {"measurement": "pH dependence of Van release behavior", "setting": "[4]; pH 5.0, 6.0, 7.4", "value": "no difference in release behavior depending on pH"}]}
{"molecule": "COc1cccc2c1C(=O)c1c(O)c3c(c(O)c1C2=O)C[C@@](O)(C(=O)CO)C[C@@H]3O[C@H]1C[C@H](N)[C@H](O)[C@H](C)O1", "note": "[free DOX, Doxorubicin, reference compound]", "values": [{"measurement": "Cell growth inhibition effect (cell viability)", "setting": "[5]", "value": "dose-dependent cell growth inhibition effects"}]}
{"molecule": "benzaldehyde-modified alginic acid-vancomycin conjugate [AL-ABA-Van]", "values": [{"measurement": "Van released (cumulative release rate)", "setting": "[4]; PBS pH 5.0, 37° C., after 10 hours", "value": "over 80%"}, {"measurement": "Van not released", "setting": "[4]; PBS pH 7.4, 37° C., after 10 hours", "value": "~50", "unit": "%"}, {"measurement": "pH dependence of Van release behavior", "setting": "[4]; pH 5.0, 6.0, 7.4", "value": "released more rapidly the lower the pH"}]}
{"molecule": "benzaldehyde-modified hyaluronic acid-doxorubicin conjugate [HA-ABA-DOX]", "values": [{"measurement": "pH dependence of DOX release", "setting": "[6]", "value": "selective drug release at low pH"}, {"measurement": "Concentration depressing cell viability compared with free DOX", "setting": "[5]", "value": "depressed cell viability at lower concentrations"}, {"measurement": "Cell growth inhibition effect (cell viability)", "setting": "[5]", "value": "dose-dependent cell growth inhibition effects"}]}
{"molecule": "benzaldehyde-modified hyaluronic acid-pemetrexed conjugate [HA-ABA-PMX]", "values": [{"measurement": "PMX released (cumulative drug release)", "setting": "[1]; PBS pH 5.0, 37° C., after 24 hours", "value": "more than 80%"}, {"measurement": "PMX not released", "setting": "[1]; PBS pH 7.4, 37° C., after 24 hours", "value": 40, "unit": "%"}, {"measurement": "pH dependence of PMX release", "setting": "[1]; pH 5.0, 6.0, 7.4", "value": "released more rapidly at lower pH values"}, {"measurement": "Concentration reducing cell viability compared with free PMX and HA-ADH-PMX", "setting": "[2]", "value": "reduced cell viability at lower concentrations"}, {"measurement": "Cell growth inhibition effect (cell viability)", "setting": "[2]", "value": "dose-dependent cell growth inhibition effects"}, {"measurement": "Concentration reducing cell viability compared with free PMX and HA-ADH-PMX", "setting": "[3]", "value": "reduced cell viability at lower concentrations"}, {"measurement": "Cell growth inhibition effect (cell viability)", "setting": "[3]", "value": "dose-dependent cell growth inhibition effects"}]}
